Data: US10175228B2, “Method of using transmembrane channel-like protein 6 (TMC6) protein to identify substances affecting salty taste” (priority 2016, dated 2019)

What was measured:
[1] = system: C57BL/6J mouse and knockout mice; assay: NaCl palatability test, two-bottle choice method; conditions: for NaCl palatability: 96 hr
Procedure: Thus, an NaCl palatability test was carried out by using the wild-type C57BL/6J mouse and the knockout mice obtained in Example 1.
The NaCl palatability test was carried out by the two-bottle choice method (abbreviated as “two-bottle method”) for 96 hr. That is, two 11-mL plastic bottles (water dispenser bottles) were filled with a test aqueous solution, moisture outside of the bottles was wiped out and dried, the weights thereof (the total weight of the bottle, a water dispenser tube made of stainless, and the aqueous solution, for each bottle) were measured, and the bottles were inserted into a metal lid of a breeding cage at an angle of approximately 30 degrees. […] The positions of the bottles were laterally interchanged every day. The weights of the bottles were measured every 24 hours, to calculate the reduced amounts of the aqueous solutions. Separately, four water dispenser bottles filled with deionized water were located on a vacant breeding cage, and changes of the weights were measured every day, to calculate an average value of the sum of the evaporation amount of the aqueous solution and the dropped amount of the aqueous solution due to experimental operation (approximately 0.05 g to 0.06 g). To prevent dropping of the aqueous solutions due to rocking of the lid of the breeding cage and the bottles by the mice, a transparent acryl board (10 cm×15 cm×1 cm, 180 g) was located on the bottles as a weight. The average value of the sum of the evaporation and dropped amounts of each aqueous solution was subtracted from the reduced amount of the same, and the resulting value was regarded as the intake amount of each aqueous solution. The ratio of the intake amount of the NaCl aqueous solution with respect to the total intake amount of the control aqueous solution and the NaCl aqueous solution was calculated and regarded as NaCl palatability.

[2] = system: control cells (CHO-K1 cells expressing YC2.60 gene); assay: Calcium imaging of control cells (CHO-K1 cells expressing YC2.60 gene only); type: cell-based, Chinese hamster; conditions: control cells without TMC6, stimulation with high-concentration NaCl solution
Procedure: CHO-K1 cells were transfected with TMC6-pcDNA3.1 or pcDNA3.1 in combination with YC2.60-pcDNA, to prepare TMC6-expressing cells (cells expressing the mouse TMC6 gene and the YC2.60 gene) and control cells (cells expressing the YC2.60 gene). The prepared cells were stimulated, and activation of the cells was measured. The procedure was as follows.
That is, first, CHO-K1 cells (ATCC) were inoculated into a culture dish having a diameter of 60 mm while adjusting the number of the cells to obtain 60% confluence, and cultured for 8 hr. As the medium, 5 mL of Ham's F-12K (Kaighn's) (Life Technologies) containing 10% fetal bovine serum (Life Technologies) was used. A 15 μL aliquot of FuGENE 6 (Promega) was added to 235 μL of Opti-MEM (Thermo Fisher Scientific), and incubated for 5 min at a room temperature. Then, 0.625 μg of TMC6-pcDNA3.1 and 2.5 μg of YC2.60-pcDNA were further added thereto, and incubated for 15 min at a room temperature. Then, the whole of the resultant mixture was dropped into the culture broth of the CHO-K1 cells, and the culture broth was mildly stirred. Then, the cells were further cultured for 18 hr under a condition of 5% CO2 at 37° C., to obtain the TMC6-expressing cells. Similarly, the control cells were obtained through transfection using pcDNA3.1 instead of TMC6-pcDNA3.1.
After the cultivation, the culture broth was removed. […]

[3] = system: Pongo abelii TMC6 protein; assay: Calcium imaging of CHO-K1 cells expressing the Pongo abelii TMC6 gene; type: cell-based; conditions: stimulation with high-concentration NaCl solution for 60 sec, 31 cells
Text: CHO-K1 cells were transfected with Macaca mulatta TMC6-2A-YC260TM in pcDNA3.1(−), Pongo abelii TMC6-2A-YC260TM in pcDNA3.1(−), Mouse-Aotus nancymaae chimera TMC6 2A-YC260TM in pcDNA3.1(−), or YC2.60-pcDNA, to prepare TMC6-expressing cells (cells expressing the Macaca mulatta TMC6 gene, the Pongo abelii TMC6 gene, or the mouse/Aotus nancymaae chimeric TMC6 gene, in combination with the YC2.60 gene) and control cells (cells expressing the YC2.60 gene). The prepared cells were stimulated, and activation of the cells was measured. The procedure was as follows.
First, a plurality of sterile cover glasses (18×32 mm, Matsunami Glass) were placed at the bottom of a culture dish having a diameter of 100 mm so as not to be overlapped to each other. CHO-K1 cells (ATCC) were inoculated thereto while adjusting the number of the cells to obtain 60% confluence, and cultured for 24 hr. Then, medium exchange was carried out. As the medium, 12 mL of Ham's F-12K (Kaighn's) (Life Technologies) containing 10% fetal bovine serum (Life Technologies) was used. […]
Change of the intracellular calcium concentration was measured and analyzed with analysis software equipped with FV1200. An average YFP/CFP value of all the cell of which the YFP/CFP value was changed by stimulation with the ATP stimulation solution was calculated at each measurement. […]

[Cl-].[Na+] [NaCl, sodium chloride]
NaCl palatability ([1]; hetero knockout mouse of the TMC6 gene (Tmc6 +/−), 100 mM NaCl + 30 μM amiloride): high
NaCl palatability ([1]; homo knockout mouse of the TMC3 gene (Tmc3 −/−), 100 mM NaCl + 30 μM amiloride): high
NaCl palatability ([1]; homo knockout mouse of the TMC6 gene (Tmc6 −/−), 100 mM NaCl + 30 μM amiloride, compared with the other subject mice (P<0.05 or P<0.01)): remarkably reduced
NaCl palatability ([1]; homo knockout mouse of the TMC8 gene (Tmc8 −/−), 100 mM NaCl + 30 μM amiloride): high
palatability for a NaCl aqueous solution ([1]; wild-type C57BL/6J mouse fed D12450B (0.1% sodium), without amiloride): slightly higher than that for water
NaCl palatability ([1]; wild-type C57BL/6J mouse, 100 mM NaCl, in the presence of 30 μM amiloride): remarkable and high
change of YFP/CFP value (intracellular calcium concentration) [2]: not observed an increase
change of average YFP/CFP value (intracellular calcium concentration) [3]: increase
